In patent US7875645B2, “Method for the treatment of CNS disorders with substituted 2-imidazoles or imidazole derivatives” (Hoffman-La Roche Inc., priority 2006, dated 2011):
Counter-ions that a name gives are not always drawn.

target: T1, TAAR1 (Mus musculus, UniProt Q923Y8); experiment: Radioligand binding assay on membranes of HEK293 cells stably expressing TAAR1; conditions: mouse TAAR1; radioligand [3H]-rac-2-(1,2,3,4-tetrahydro-1-naphthyl)-2-imidazoline at 60 nM; 4° C., 30 min
T1 construct: expressed in transfected cells; host or cells: HEK293 (ATCC # CRL-1573), stably transfected with pIRESneo2 expression plasmid; membranes prepared
T1 sequence (Q923Y8 whole entry): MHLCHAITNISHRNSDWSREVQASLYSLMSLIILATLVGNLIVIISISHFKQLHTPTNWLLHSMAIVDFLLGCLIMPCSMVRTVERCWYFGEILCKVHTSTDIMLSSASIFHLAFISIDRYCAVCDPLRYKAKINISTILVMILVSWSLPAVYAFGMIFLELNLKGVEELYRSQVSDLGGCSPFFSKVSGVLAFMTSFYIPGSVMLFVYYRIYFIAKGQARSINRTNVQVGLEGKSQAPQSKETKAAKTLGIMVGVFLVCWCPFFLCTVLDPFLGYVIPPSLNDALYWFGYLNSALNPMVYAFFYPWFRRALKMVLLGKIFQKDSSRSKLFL
Description: For the construction of expression plasmids the coding sequences of human, rat and mouse TAAR 1 were amplified from genomic DNA essentially as described by Lindemann et al.. The Expand High Fidelity PCR System (Roche Diagnostics) was used with 1.5 mM Mg^2+ and purified PCR products were cloned into pCR2.1-TOPO cloning vector (Invitrogen) following the instructions of the manufacturer. PCR products were subcloned into the pIRESneo2 vector (BD Clontech, Palo Alto, Calif.), and expression vectors were sequence verified before introduction in cell lines.
For the generation of stably transfected cell lines HEK293 cells were transfected with the pIRESneo2 expression plasmids containing the TAAR coding sequences (described above) with Lipofectamine 2000 (Invitrogen) according to the instructions of the manufacturer, and 24 hrs post transfection the culture medium was supplemented with 1 mg/ml G418 (Sigma, Buchs, Switzerland). After a culture period of about 10 d clones were isolated, expanded and tested for responsiveness to trace amines (all compounds purchased from Sigma) with the cAMP Biotrak Enzyme immunoassay (EIA) System (Amersham) following the non-acetylation EIA procedure provided by the manufacturer.
Cells at confluence were rinsed with ice-cold phosphate buffered saline without Ca^2+ and Mg^2+ containing 10 mM EDTA and pelleted by centrifugation at 1000 rpm for 5 min at 4° C. The pellet was then washed twice with ice-cold phosphate buffered saline and cell pellet was frozen immediately by immersion in liquid nitrogen and stored until use at −80° C. Cell pellet was then suspended in 20 ml HEPES-NaOH (20 mM), pH 7.4 containing 10 mM EDTA, and homogenized with a Polytron (PT 3000, Kinematica) at 10,000 rpm for 10 s. The homogenate was centrifuged at 48,000×g for 30 min at 4° C. and the pellet resuspended in 20 ml HEPES-NaOH (20 mM), pH 7.4 containing 0.1 mM EDTA (buffer A), and homogenized with a Polytron at 10,000 rpm for 10 s. The homogenate was then centrifuged at 48,000×g for 30 min at 4° C. and the pellet resuspended in 20 ml buffer A, and homogenized with a Polytron at 10,000 rpm for 10 s. Protein concentration was determined by the method of Pierce (Rockford, Ill.). The homogenate was then centrifuged at 48,000×g for 10 min at 4° C., resuspended in HEPES-NaOH (20 mM), pH 7.0 including MgCl2 (10 mM) and […] homogenized with a Polytron at 10,000 rpm for 10 s.
Binding assay was performed at 4° C. in a final volume of 1 ml, and with an incubation time of 30 min. […] Non-specific binding was defined as the amount of [^3H]-rac-2-(1,2,3,4-tetrahydro-1-naphthyl)-2-imidazoline bound in the presence of the appropriate unlabelled ligand (10 μM). Competing ligands were tested in a wide range of concentrations (10 pM-30 μM). […] Each experiment was performed in duplicate. Al incubations were terminated by rapid filtration through UniFilter-96 plates (Packard Instrument Company) and glass filter GF/C, pre-soaked for at least 2 h in polyethylenimine 0.3%, and using a Filtermate 96 Cell Harvester (Packard Instrument Company). The tubes and filters were then washed 3 times with 1 ml aliquots of cold buffer B. Filters were not dried and soaked in Ultima gold (45 μl/well, Packard Instrument Company) and bound radioactivity was counted by a TopCount Microplate Scintillation Counter (Packard Instrument Company).

Compared with “4-Tritio-2-naphthalen-1-ylmethyl-4,5-dihydro-1H-imidazole [Example 113]”, `Cc1cccc(C(C)C2=NCCN2)c1C` (racemic) [Example 18, rac-2-[1-(2,3-Dimethyl-phenyl)-ethyl]-4,5-dihydro-1H-imidazole hydrochloride] is 3.9-fold higher in Ki: 0.007 µM for the first, 0.027 µM for the second. The first binds more tightly here.

Going from `CC(C1=NCCN1)c1ccc(Cc2ccccc2)cc1` (racemic) [Example 158, rac-2-[1-(4-Benzyl-phenyl)-ethyl]-4,5-dihydro-1H-imidazole hydrochloride] to `CCc1cccc(OC)c1CC1=NCCN1` [Example 9, 2-(2-Ethyl-6-methoxy-benzyl)-4,5-dihydro-1H-imidazole], the Ki falls from 0.021 µM to 0.01 µM (2.1-fold). The second binds more tightly here.

Compared with `COc1cccc(C)c1CC1=NCCN1` [Example 10, 2-(2-Methoxy-6-methyl-benzyl)-4,5-dihydro-1H-imidazole], `CCc1cccc(C)c1CC1=NCCN1` [Example 11, 2-(2-Ethyl-6-methyl-benzyl)-4,5-dihydro-1H-imidazole] is 3.3-fold lower in Ki: 0.023 µM for the first, 0.007 µM for the second.

`CCc1cccc(C(C)C)c1CC1=NCCN1` [Example 12, 2-(2-Ethyl-6-isopropyl-benzyl)-4,5-dihydro-1H-imidazole] and `Clc1cccc(CC2=NCCN2)c1Cl` [Example 17, 2-(2,3-Dichloro-benzyl)-4,5-dihydro-1H-imidazole] are within 1.5-fold of each other in Ki: 0.03 µM for the first, 0.021 µM for the second.

Going from `CCc1ccc(Br)c(CC)c1CC1=NCCN1` [Example 32, 2-(3-Bromo-2,6-diethyl-benzyl)-4,5-dihydro-1H-imidazole] to `COc1cc(C)c(CC2=NCCN2)cc1C` [Example 33, 2-(4-Methoxy-2,5-dimethyl-benzyl)-4,5-dihydro-1H-imidazole hydrochloride], the Ki rises from 0.005 µM to 0.014 µM (2.8-fold).

Compared with `COc1cc(Br)c(CC2=NCCN2)cc1OC` [Example 34, 2-(2-Bromo-4,5-dimethoxy-benzyl)-4,5-dihydro-1H-imidazole hydrochloride], `CCc1ccccc1CC1=NCCN1` [Example 54, 2-(2-Ethyl-benzyl)-4,5-dihydro-1H-imidazole] is 1.9-fold lower in Ki: 0.031 µM for the first, 0.016 µM for the second.

`COc1cccc(Cl)c1CC1=NCCN1` [Example 55, 2-(2-Chloro-6-methoxy-benzyl)-4,5-dihydro-1H-imidazole] and `c1ccc(C2CC2)c(CC2=NCCN2)c1` [Example 56, 2-(2-Cyclopropyl-benzyl)-4,5-dihydro-1H-imidazole] are within 1.5-fold of each other in Ki: 0.017 µM for the first, 0.025 µM for the second.

`Cc1cccc(Br)c1CC1=NCCN1` [Example 57, 2-(2-Bromo-6-methyl-benzyl)-4,5-dihydro-1H-imidazole] and `COc1cc(Br)c(C)c(CC2=NCCN2)c1` [Example 58, 2-(3-Bromo-5-methoxy-2-methyl-benzyl)-4,5-dihydro-1H-imidazole] are within 1.5-fold of each other in Ki: 0.029 µM for the first, 0.03 µM for the second.

Going from `FC(F)(F)c1cccc(CC2=NCCN2)c1Cl` [Example 59, 2-(2-Chloro-3-trifluoromethyl-benzyl)-4,5-dihydro-1H-imidazole] to `CCc1cccc(CC)c1Cc1ncc[nH]1` [Example 70, 2-(2,6-Diethyl-benzyl)-1H-imidazole], the Ki falls from 0.041 µM to 0.025 µM (1.6-fold).

First: Cc1cc(C)c(C)c(Cc2ncc[nH]2)c1C [Example 71, 2-(2,3,5,6-Tetramethyl-benzyl)-1H-imidazole]
Second: Cc1c(C)c(C)c(Cc2ncc[nH]2)c(C)c1C [Example 72, 2-Pentamethylphenylmethyl-1H-imidazole]
The Ki of the first is 1.7-fold lower: 0.01 µM for the first, 0.017 µM for the second.

Compared with `COc1cc(C)c(Cc2ncc[nH]2)c(C)c1` [Example 73, 2-(4-Methoxy-2,6-dimethyl-benzyl)-1H-imidazole], `CCc1ccc(Br)c(CC)c1Cc1ncc[nH]1` [Example 77, 2-(3-Bromo-2,6-diethyl-benzyl)-1H-imidazole] is 1.9-fold lower in Ki: 0.049 µM for the first, 0.026 µM for the second. The second binds more tightly here.

`Cc1ccc2ccoc2c1CC1=NCCN1` [Example 106, 2-(6-Methyl-benzofuran-7-ylmethyl)-4,5-dihydro-1H-imidazole] and `c1cc(CC2=NCCN2)c2occc2c1` [Example 107, 2-Benzofuran-7-ylmethyl-4,5-dihydro-1H-imidazole] are within 1.5-fold of each other in Ki: 0.017 µM for the first, 0.022 µM for the second.

First: Cc1sc(C)c(CC2=NCCN2)c1C [Example 109, 2-(2,4,5-Trimethyl-thiophen-3-ylmethyl)-4,5-dihydro-1H-imidazole]
Second: Cc1sc(C)c(Cc2ncc[nH]2)c1C [Example 110, 2-(2,4,5-Trimethyl-thiophen-3-ylmethyl)-1H-imidazole]
The Ki of the first is 5.2-fold lower: 0.004 µM for the first, 0.021 µM for the second. The first binds more tightly here.

Compared with `[3H]c1ccc(CC)c(Cc2ncc[nH]2)c1CC` [Example 112, 2-(2,6-Diethyl-3-tritio-benzyl)-1H-imidazole], `Cc1cc(C(C)(C)C)cc(C)c1CC1=NCCN1` [Example 114, 2-(4-tert-Butyl-2,6-dimethyl-benzyl)-4,5-dihydro-1H-imidazole, reference compound] is 4.2-fold lower in Ki: 0.025 µM for the first, 0.006 µM for the second.

`Cc1c(C)c(C)c(CC2=NCCN2)c(C)c1C` [Example 115, 2-Pentamethylphenylmethyl-4,5-dihydro-1H-imidazole] and `Cc1cc(C)c(C)c(CC2=NCCN2)c1C` [Example 116, 2-(2,3,5,6-Tetramethyl-benzyl)-4,5-dihydro-1H-imidazole] are within 1.5-fold of each other in Ki: 0.007 µM for the first, 0.008 µM for the second.

First: Cc1cc(C(C)(C)C)c(O)c(C)c1CC1=NCCN1 [Example 117, 6-tert-Butyl-3-(4,5-dihydro-1H-imidazol-2-ylmethyl)-2,4-dimethyl-phenol, reference compound]
Second: Cc1cc(C)c(CC2=NCCN2)c(C)c1 [Example 118, 2-(2,4,6-Trimethyl-benzyl)-4,5-dihydro-1H-imidazole, reference compound]
The Ki of the first is 2.1-fold lower: 0.008 µM for the first, 0.017 µM for the second. The first binds more tightly here.

`Clc1ccc(CC2=NCCN2)cc1Cl` [Example 121, 2-(3,4-Dichloro-benzyl)-4,5-dihydro-1H-imidazole] and `COc1cccc(CC2=NCCN2)c1OC` [Example 122, 2-(2,3-Dimethoxy-benzyl)-4,5-dihydro-1H-imidazole] are within 1.5-fold of each other in Ki: 0.023 µM for the first, 0.025 µM for the second.

First: COc1cc(C)c(CC2=NCCN2)c(C)c1 [Example 123, 2-(4-Methoxy-2,6-dimethyl-benzyl)-4,5-dihydro-1H-imidazole]
Second: Brc1ccccc1CC1=NCCN1 [Example 124, 2-(2-Bromo-benzyl)-4,5-dihydro-1H-imidazole]
The Ki of the first is 1.6-fold lower: 0.028 µM for the first, 0.044 µM for the second. The first binds more tightly here.

`Nc1c(Cl)cc(CC2=NCCN2)cc1Cl` [Example 125, 2,6-Dichloro-4-(4,5-dihydro-1H-imidazol-2-ylmethyl)-phenylamine, reference compound] and `Cc1cc(C)c(Cc2ncc[nH]2)c(C)c1` [Example 137, 2-(2,4,6-Trimethyl-benzyl)-1H-imidazole] are within 1.5-fold of each other in Ki: 0.048 µM for the first, 0.038 µM for the second.

Going from `c1ccc2c(CC3=NCCN3)cccc2c1` [Example 140, 2-Naphthalen-1-ylmethyl-4,5-dihydro-1H-imidazole, reference compound] to `c1ccc2cc(CC3=NCCN3)ccc2c1` [Example 141, 2-Naphthalen-2-ylmethyl-4,5-dihydro-1H-imidazole], the Ki rises from 0.007 µM to 0.029 µM (4.1-fold). The first binds more tightly here.

Going from `c1ccc2c(CC3=NCCN3)csc2c1` [Example 143, 2-Benzo[b]thiophen-3-ylmethyl-4,5-dihydro-1H-imidazole] to `COc1ccc2ccccc2c1CC1=NCCN1` [Example 149, 2-(2-Methoxy-naphthalen-1-ylmethyl)-4,5-dihydro-1H-imidazole], the Ki rises from 0.004 µM to 0.012 µM (3-fold). The first binds more tightly here.

Compared with `Cc1ccc2ccccc2c1CC1=NCCN1` [Example 154, 2-(2-Methyl-naphthalen-1-ylmethyl)-4,5-dihydro-1H-imidazole], `c1cc(CC2=NCCN2)c2ccoc2c1` [Example 168, 2-Benzofuran-4-ylmethyl-4,5-dihydro-1H-imidazole hydrochloride] is 4.5-fold higher in Ki: 0.01 µM for the first, 0.045 µM for the second.

same assay, conditions: radioligand used in the TAAR1 binding assay; species not given; read-out: calculated Kd value of the radioligand

`c1ccc2c(c1)CCCC2C1=NCCN1` (racemic) [[^3H]-rac-2-(1,2,3,4-tetrahydro-1-naphthyl)-2-imidazoline, reference compound] gave a Kd of 60 nM.
